According to patent US7288535B2, “Methods and compositions for stimulating bone growth using nitric oxide releasing bisphosphonate conjugates” (OsteoScreen, Inc., priority 2002, dated 2007):
Like-named read-outs stand apart in the source and are kept apart here. Marks after values point to notes of the source that are not given here.

How the values were obtained:
[1] = system: neonatal murine calvarial incubation media; conditions: mean ± standard error (n=5)
Protocol: (§1) An assay for bone resorption or bone formation is similar to that described by Gowen M. & Mundy G., J Immunol (1986) 136:2478-82. Briefly, four days after birth, the front and parietal bones of ICR Swiss white mouse pups are removed by microdissection and split along the sagittal suture. […] The medium used when the assay is conducted to assess bone formation is Fitton and Jackson Modified BGJ Medium (Sigma) supplemented with 6 ug/ml insulin, 6 ug/ml transferrin, 6 ng/ml selenous acid, calcium and phosphate concentrations of 1.25 and 3.0 mM, respectively, and ascorbic acid to a concentration of 100 ug/ml is added every two days. The incubation is conducted at 37° C. in a humidified atmosphere of 5% CO2 and 95% air for 96 hours.
These neonatal murine calvaria do contain measurable levels of alkaline phosphatase and this can be measured either from the calvaria itself or to some degree in the incubation media as a semi-quantitative measurement of bone formation activity. For measurement of alkaline phosphatase activity in the media, 50 ul is removed at the end of the assay. The activity is then measured using standard alkaline phosphatase reagents.
Alkaline phosphatase activity is measured in the incubation media as detailed described above in “Techniques for Neonatal Mouse Calvaria Assay (in vitro)).

[2] = system: human stomach; conditions: healthy volunteers, doses prescribed for osteoporosis and Pagets disease of bone; cited from earlier work
[3] = system: Neonatal Murine Calvariae; conditions: mean ± standard error (n=5)
Protocol: as §1
The bones are removed from the incubation media and fixed in 10% buffered formalin for 24-48 hours, decalcified in 14% EDTA for 1 week, processed through graded alcohols; and embedded in paraffin wax. Three μm sections of the calvaria are prepared. Representative sections are selected for histomorphometric assessment of bone formation or bone resorption. Bone changes are measured on sections cut 200 μm apart. Osteoblasts and osteoclasts are identified by their distinctive morphology.
Selected compounds and appropriate controls were assayed in vitro (ex vivo) for bone formation activity (described above in “Techniques for Neonatal Mouse Calvaria Assay (in vitro)). Histomorphometrical assessments of ex vivo calvaria were carried out using an OsteoMetrics bone morphometry measurement program, according to the manufacturer's instructions. Measurements were determined using either a 10- or 20-fold objective with a standard point counting eyepiece graticule.
New bone formation was determined (using a 20× objective) by measuring the new bone area formed in one field in 3 representative sections of each bone (4 bones per group). Each measurement was carried out ½ field distance from the end of the suture. Both total bone and old bone area were measured. Data were expressed as new bone width in mm.
Osteoblast numbers are determined by point counting. The number of osteoblast cells lining the bone surface on both sides of the bone are counted in one field using a 20× objective. Data are expressed as osteoblast numbers/mm of bone surface.

Structure (SMILES)	Alkaline Phosphatase OD ([1]; 0.1 uM)	Alkaline Phosphatase OD ([1]; 1 uM)	Alkaline Phosphatase OD ([1]; 10 uM)	Alkaline Phosphatase OD ([1]; 100 uM)	injury to the stomach [2]	Cell Number/0.3 mm bone ([3]; 0.1 uM)	New Bone Area ([3]; 0.1 uM)	Cell Number/0.3 mm bone ([3]; 1 uM)	New Bone Area ([3]; 1 uM)	Cell Number/0.3 mm bone ([3]; 10 uM)	New Bone Area ([3]; 10 uM)	Cell Number/0.3 mm bone ([3]; 100 uM)	New Bone Area ([3]; 100 uM)
NCCCC(O)(P(=O)(O)O)P(=O)(O)O [Alendronate, (4-animo-1-hydroxybutylidene)bis-phosphonate]	0.030 ± 0.009 OD	0.031 ± 0.010 OD	0.034 ± 0.001 OD	0.038 ± 0.003 OD	cause erosions and ulcers in the human stomach	98± 6 /0.3 mm bone	2.9 ± 0.1 mm^2 × 10^−3	103± 4 /0.3 mm bone	3.2 ± 0.5 mm^2 × 10^−3	101± 5 /0.3 mm bone	2.7 ± 0.2 mm^2 × 10^−3	97± 3 /0.3 mm bone	3.1 ± 0.3 mm^2 × 10^−3
O=C(NCCCC(O)(P(=O)(O)O)P(=O)(O)O)c1ccc(CO[N+](=O)[O-])cc1 [NOX-Alendronate, [4-(4′-nitrooxymethyl)benzoylamino-1-hydroxybutylidene]-bis-phosphonate]	0.029 ± 0.007 OD	0.023 ± 0.001 OD	0.053 ± 0.007 OD	0.072 ± 0.003 OD		104 ± 8 /0.3 mm bone	3.6 ± 0.6 mm^2 × 10^−3	115 ± 5 /0.3 mm bone	4.2 ± 0.4 mm^2 × 10^−3	132 ± 5 /0.3 mm bone	6.7 ± 0.7* mm^2 × 10^−3	124 ± 2 /0.3 mm bone	5.4 ± 0.3* mm^2 × 10^−3
